From patent publication US20190367516A1 (Bayer Pharma Aktiengesellschaft, priority 2015, published 2019)
Like-named read-outs stand apart in the source and are kept apart here.

Target: T1, human M2 receptor (Homo sapiens, UniProt P08172)
T1 sequence (P08172 1-466): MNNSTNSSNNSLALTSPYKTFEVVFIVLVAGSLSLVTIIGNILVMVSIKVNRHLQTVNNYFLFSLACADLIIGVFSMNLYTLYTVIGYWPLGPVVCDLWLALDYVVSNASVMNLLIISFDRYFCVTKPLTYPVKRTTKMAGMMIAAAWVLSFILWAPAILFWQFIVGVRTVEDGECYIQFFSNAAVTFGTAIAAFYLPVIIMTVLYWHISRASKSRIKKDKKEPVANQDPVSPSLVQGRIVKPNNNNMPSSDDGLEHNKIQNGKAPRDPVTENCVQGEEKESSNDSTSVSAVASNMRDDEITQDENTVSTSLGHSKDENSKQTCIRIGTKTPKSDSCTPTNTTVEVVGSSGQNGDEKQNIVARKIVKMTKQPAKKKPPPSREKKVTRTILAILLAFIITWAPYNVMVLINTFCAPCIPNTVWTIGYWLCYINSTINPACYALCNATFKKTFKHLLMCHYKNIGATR
Settings: for Efficiency: boosting of the acetylcholine effect at EC20 acetylcholine concentration; for Emax: read-out: Efficiency, boosting of the acetylcholine effect at EC20 acetylcholine concentration

[1] = Receptor activity EC50, allosteric potency at EC20 acetylcholine, M2-GIRK1/4 reporter cells, in some cases mean of two or more determinations
[2] = Receptor activity EC50, M2-GIRK1/4 activation test, acetylcholine at EC20, allosteric potency, in some cases mean values from two or more determinations

SMILES | EC50 [1] [nM] | EC50 [2] [nM] | further results
O=C(N[C@@H](C1CC1)C(F)(F)F)c1cn(-c2c(F)cc(F)cc2F)c2nc(N3CC[C@@H](O)[C@H](O)C3)ccc2c1=O (single isomer, unassigned) [Example 617, N-[(1 S)-1-Cyclopropyl-2,2,2-trifluoroethyl]-7-[trans-3,4-dihydroxypiperidin-1-yl]-4-oxo-1-(2,4,6-trifluorophenyl)-1,4-dihydro-1,8-naphthyridine-3-carboxamide] | 96 | – | Efficiency (M2-GIRK1/4 reporter cells): 98.0%
CC[C@H](NC(=O)c1cn(-c2c(F)cc(F)cc2F)c2nc(N3CC(O)C4(CC4)C3)ccc2c1=O)C(F)(F)F (single isomer, unassigned) [Example 620] | 47 | – | Emax (M2-GIRK1/4 reporter cells): 100%
O=C(NC12CC(C1)C2)c1cn(-c2c(F)cc(F)cc2F)c2nc(N3CC(O)C4(CC4)C3)ccc2c1=O (single isomer, unassigned) [Example 627, N-(Bicyclo[1.1.1]pent-1-yl)-7-[7-hydroxy-5-azaspiro[2.4]hept-5-yl]-4-oxo-1-(2,4,6-trifluorophenyl)-1,4-dihydro-1,8-naphthyridine-3-carboxamide] | 140 | – | Emax (M2-GIRK1/4 reporter cells): 83.5%
O=C(NC12CC(C1)C2)c1cn(-c2c(F)cc(F)cc2F)c2nc(N3CC(O)C4(CC4)C3)ccc2c1=O (single isomer, unassigned) [Example 628, N-(Bicyclo[1.1.1]pent-1-yl)-7-[7-hydroxy-5-azaspiro[2.4]hept-5-yl]-4-oxo-1-(2,4,6-trifluorophenyl)-1,4-dihydro-1,8-naphthyridine-3-carboxamide] | 32 | – | –
O=C(NC12CC3CC(CC(C3)C1)C2)c1cn(-c2ccc(F)cc2F)c2nc(N3CCCC(F)(F)C3)ccc2c1=O [Example 1, 1-(2,4-Difluorophenyl)-7-(3,3-difluoropiperidin-1-yl)-4-oxo-N-(tricyclo[3.3.1.1^3,7]dec-1-yl)-1,4-dihydro-1,8-naphthyridine-3-carboxamide] | – | 14 | –
O=C(NC12CC3CC(CC(C3)C1)C2)c1cn(-c2ccc(F)cc2F)c2nc(N3CCC(F)CC3)ccc2c1=O [Example 5, 1-(2,4-Difluorophenyl)-7-(4-fluoropiperidin-1-yl)-4-oxo-N-(tricyclo[3.3.1.1^3,7]dec-1-yl)-1,4-dihydro-1,8-naphthyridine-3-carboxamide] | – | 31 | –
O=C(NC12CC3CC(CC(C3)C1)C2)c1cn(-c2ccc(F)cc2F)c2nc(N3CCCCC3)ccc2c1=O [Example 8, 1-(2,4-Difluorophenyl)-4-oxo-7-(piperidin-1-yl)-N-(tricyclo[3.3.1.1^3,7]dec-1-yl)-1,4-dihydro-1,8-naphthyridine-3-carboxamide] | – | 38 | –
NC(=O)N1CCN(c2ccc3c(=O)c(C(=O)NC45CC6CC(CC(C6)C4)C5)cn(-c4ccc(F)cc4F)c3n2)CC1 [Example 12, 7-(4-Carbamoylpiperazin-1-yl)-1-(2,4-difluorophenyl)-4-oxo-N-(tricyclo[3.3.1.1^3,7]dec-1-yl)-1,4-dihydro-1,8-naphthyridine-3-carboxamide] | – | 64 | –
O=C(NC12CC3CC(CC(C3)C1)C2)c1cn(-c2ccc(F)cc2F)c2nc(N3CCC(F)(CO)CC3)ccc2c1=O [Example 16, 1-(2,4-Difluorophenyl)-7-[4-fluoro-4-(hydroxymethyl)piperidin-1-yl]-4-oxo-N-(tricyclo[3.3.1.1^3,7]dec-1-yl)-1,4-dihydro-1,8-naphthyridine-3-carboxamide] | – | 90 | –
O=C(NC12CC3CC(CC(C3)C1)C2)c1cn(-c2ccc(F)cc2F)c2nc(N3CCCC(CCO)C3)ccc2c1=O (stereo not drawn) [Example 17, 1-(2,4-Difluorophenyl)-7-[3-(2-hydroxyethyl)piperidin-1-yl]-4-oxo-N-(tricyclo[3.3.1.1^3,7]dec-1-yl)-1,4-dihydro-1,8-naphthyridine-3-carboxamide] | – | 159 | –
O=C1CN(c2ccc3c(=O)c(C(=O)NC45CC6CC(CC(C6)C4)C5)cn(-c4ccc(F)cc4F)c3n2)CCN1 [Example 18, 1-(2,4-Difluorophenyl)-4-oxo-7-(3-oxopiperazin-1-yl)-N-(tricyclo[3.3.1.1^3,7]dec-1-yl)-1,4-dihydro-1,8-naphthyridine-3-carboxamide] | – | 117 | –
CO[C@@H]1CCN(c2ccc3c(=O)c(C(=O)NC(C)(C)c4c(F)cccc4F)cn(-c4ccc(F)cc4F)c3n2)C1 [Example 22, 1-(2,4-Difluorophenyl)-N-[2-(2,6-difluorophenyl)propan-2-yl]-7-[(3R)-3-methoxypyrrolidin-1-yl]-4-oxo-1,4-dihydro-1,8-naphthyridine-3-carboxamide] | – | 131 | –
CN(C)c1ccc2c(=O)c(C(=O)NC34CC5CC(CC(F)(C5)C3)C4)cn(-c3ccc(F)cc3F)c2n1 [Example 37, 1-(2,4-Difluorophenyl)-7-(dimethylamino)-N-(3-fluorotricyclo[3.3.1.1^3,7]dec-1-yl)-4-oxo-1,4-dihydro-1,8-naphthyridine-3-carboxamide] | – | 23 | –
CN(C)c1ccc2c(=O)c(C(=O)NC34CC5CC(C3)C(F)(F)C(C5)C4)cn(-c3ccc(F)cc3Cl)c2n1 [Example 40, 1-(2-Chloro-4-fluorophenyl)-N-(4,4-difluorotricyclo[3.3.1.1^3,7]dec-1-yl)-7-(dimethylamino)-4-oxo-1,4-dihydro-1,8-naphthyridine-3-carboxamide] | – | 106 | –
CN(C)c1ccc2c(=O)c(C(=O)NC34CC5CC(CC(C)(C5)C3)C4)cn(-c3ccc(F)cc3F)c2n1 [Example 41, 1-(2,4-Difluorophenyl)-7-(dimethylamino)-N-(3-methyltricyclo[3.3.1.1^3,7]dec-1-yl)-4-oxo-1,4-dihydro-1,8-naphthyridine-3-carboxamide] | – | 39 | –
CN(C)c1ccc2c(=O)c(C(=O)NC34CCC(C)(CC3)CC4)cn(-c3ccc(F)cc3F)c2n1 [Example 42, 1-(2,4-Difluorophenyl)-7-(dimethylamino)-N-(4-methylbicyclo[2.2.2]oct-1-yl)-4-oxo-1,4-dihydro-1,8-naphthyridine-3-carboxamide] | – | 17 | –
CN(C)c1ccc2c(=O)c(C(=O)NC(C)(C)C)cn(-c3ccc(F)cc3F)c2n1 [Example 43, N-tery-Butyl-1-(2,4-difluorophenyl)-7-(dimethylamino)-4-oxo-1,4-dihydro-1,8-naphthyridine-3-carboxamide] | – | 141 | –

More lines, main results first:

EC50 [1] [nM] | EC50 [2] [nM] | SMILES | further results
67 | – | CC(NC(=O)c1cn(-c2ccc(F)cc2F)c2nc(N3C[C@@H](O)CC3=O)ccc2c1=O)C(F)(F)C(F)(F)F (single isomer, unassigned) [Example 623] | Emax (M2-GIRK1/4 reporter cells): 97%
140 | – | CC(NC(=O)c1cn(-c2ccc(F)cc2F)c2nc(N3C[C@@H](O)CC3=O)ccc2c1=O)C(F)(F)C(F)(F)F (single isomer, unassigned) [Example 624] | Efficiency (M2-GIRK1/4 reporter cells): 96.5%
16 | – | CC1CC(=O)N(c2ccc3c(=O)c(C(=O)NC(C4CC4)C(F)(F)F)cn(-c4c(F)cc(F)cc4F)c3n2)C1 (stereo in doubt) [Example 420, N-[(1R)-1-cyclopropyl-2,2,2-trifluoroethyl]-7-[4-methyl-2-oxopyrrolidin-1-yl]-4-oxo-1-(2,4,6-trifluorophenyl)-1,4-dihydro-1,8-naphthyridine-3-carboxamide] | Emax (M2-GIRK1/4 reporter cells): 97.5%
96 | – | CC1CN(c2ccc3c(=O)c(C(=O)N[C@@H](C4CC4)C(F)(F)F)cn(-c4c(F)cc(F)cc4F)c3n2)C(=O)O1 (stereo in doubt) [Example 445, N-[(1 S)-1-Cyclopropyl-2,2,2-trifluoroethyl]-7-[(5S)-5-methyl-2-oxo-1,3-oxazolidin-3-yl]-4-oxo-1-(2,4,6-trifluorophenyl)-1,4-dihydro-1,8-naphthyridine-3-carboxamide] | Efficiency (M2-GIRK1/4 reporter cells): 97.5%
13 | – | CC(C)C(C)NC(=O)c1cn(-c2c(F)cc(F)cc2F)c2nc(N3C[C@@H](O)CC3=O)ccc2c1=O (stereo in doubt) [Example 482, 7-[(4S)-4-Hydroxy-2-oxopyrrolidin-1-yl]-N-[(2R)-3-methylbutan-2-yl]-4-oxo-1-(2,4,6-trifluorophenyl)-1,4-dihydro-1,8-naphthyridine-3-carboxamide] | Emax (M2-GIRK1/4 reporter cells): 98.5%
– | 145 | CC(C)(NC(=O)c1cn(-c2ccc(F)cc2F)c2nc(N3CC[C@@H](O)C3)ccc2c1=O)c1c(F)cccc1F [Example 21, 1-(2,4-Difluorophenyl)-N-[2-(2,6-difluorophenyl)propan-2-yl]-7-[(3R)-3-hydroxypyrrolidin-1-yl]-4-oxo-1,4-dihydro-1,8-naphthyridine-3-carboxamide] | –
– | 173 | CC[C@@H](NC(=O)c1cn(-c2ccc(F)cc2F)c2nc(N3CC(F)C3)ccc2c1=O)C(F)(F)F [Example 32, 1-(2,4-Difluorophenyl)-7-(3-fluoroazetidin-1-yl)-4-oxo-N-[(2R)-1,1,1-trifluorobutan-2-yl]-1,4-dihydro-1,8-naphthyridine-3-carboxamide] | –
– | 28 | CC[C@H](NC(=O)c1cn(-c2ccc(F)cc2F)c2nc(N(C)C)ccc2c1=O)C(F)(F)F [Example 45, 1-(2,4-Difluorophenyl)-7-(dimethylamino)-4-oxo-N-[(2S)-1,1,1-trifluorobutan-2-yl]-1,4-dihydro-1,8-naphthyridine-3-carboxamide] | –
